Assay results taken from ChEMBL document CHEMBL3352102, “Synthesis and bioevaluation of 2-phenyl-4-methyl-1,3-selenazole-5-carboxylic acids as potent xanthine oxidase inhibitors” (Eur J Med Chem, 2014).

Experiments:
[1] = biological target: T1, Xanthine dehydrogenase/oxidase (Bos taurus, UniProt P80457); assay: Inhibition of bovine xanthine oxidase assessed as inhibition of uric acid formation after 30 mins by spectrophotometry
[2] = biological target: T1, Xanthine dehydrogenase/oxidase; assay: Mixed-type inhibition of bovine xanthine oxidase assessed as inhibition of uric acid formation by secondary Lineweaver-Burk plot
[3] = biological target: T1, Xanthine dehydrogenase/oxidase; assay: Mixed-type inhibition of reduced form of bovine xanthine oxidase assessed as inhibition of uric acid formation by Lineweaver-Burk plot; details: cattle
[4] = biological target: T1, Xanthine dehydrogenase/oxidase; assay: Mixed-type inhibition of bovine xanthine oxidase assessed as inhibition of uric acid formation by Lineweaver-Burk plot
[5] = biological target: T1, Xanthine dehydrogenase/oxidase; assay: Mixed-type inhibition of oxidized form of bovine xanthine oxidase assessed as inhibition of uric acid formation by Lineweaver-Burk plot; details: cattle
[6] = biological target: T1, Xanthine dehydrogenase/oxidase; assay: Inhibition of bovine xanthine oxidase assessed as inhibition of uric acid formation at 10000 nM after 30 mins by spectrophotometry; details: cattle, 0.5 h

T1 sequence (P80457 whole entry): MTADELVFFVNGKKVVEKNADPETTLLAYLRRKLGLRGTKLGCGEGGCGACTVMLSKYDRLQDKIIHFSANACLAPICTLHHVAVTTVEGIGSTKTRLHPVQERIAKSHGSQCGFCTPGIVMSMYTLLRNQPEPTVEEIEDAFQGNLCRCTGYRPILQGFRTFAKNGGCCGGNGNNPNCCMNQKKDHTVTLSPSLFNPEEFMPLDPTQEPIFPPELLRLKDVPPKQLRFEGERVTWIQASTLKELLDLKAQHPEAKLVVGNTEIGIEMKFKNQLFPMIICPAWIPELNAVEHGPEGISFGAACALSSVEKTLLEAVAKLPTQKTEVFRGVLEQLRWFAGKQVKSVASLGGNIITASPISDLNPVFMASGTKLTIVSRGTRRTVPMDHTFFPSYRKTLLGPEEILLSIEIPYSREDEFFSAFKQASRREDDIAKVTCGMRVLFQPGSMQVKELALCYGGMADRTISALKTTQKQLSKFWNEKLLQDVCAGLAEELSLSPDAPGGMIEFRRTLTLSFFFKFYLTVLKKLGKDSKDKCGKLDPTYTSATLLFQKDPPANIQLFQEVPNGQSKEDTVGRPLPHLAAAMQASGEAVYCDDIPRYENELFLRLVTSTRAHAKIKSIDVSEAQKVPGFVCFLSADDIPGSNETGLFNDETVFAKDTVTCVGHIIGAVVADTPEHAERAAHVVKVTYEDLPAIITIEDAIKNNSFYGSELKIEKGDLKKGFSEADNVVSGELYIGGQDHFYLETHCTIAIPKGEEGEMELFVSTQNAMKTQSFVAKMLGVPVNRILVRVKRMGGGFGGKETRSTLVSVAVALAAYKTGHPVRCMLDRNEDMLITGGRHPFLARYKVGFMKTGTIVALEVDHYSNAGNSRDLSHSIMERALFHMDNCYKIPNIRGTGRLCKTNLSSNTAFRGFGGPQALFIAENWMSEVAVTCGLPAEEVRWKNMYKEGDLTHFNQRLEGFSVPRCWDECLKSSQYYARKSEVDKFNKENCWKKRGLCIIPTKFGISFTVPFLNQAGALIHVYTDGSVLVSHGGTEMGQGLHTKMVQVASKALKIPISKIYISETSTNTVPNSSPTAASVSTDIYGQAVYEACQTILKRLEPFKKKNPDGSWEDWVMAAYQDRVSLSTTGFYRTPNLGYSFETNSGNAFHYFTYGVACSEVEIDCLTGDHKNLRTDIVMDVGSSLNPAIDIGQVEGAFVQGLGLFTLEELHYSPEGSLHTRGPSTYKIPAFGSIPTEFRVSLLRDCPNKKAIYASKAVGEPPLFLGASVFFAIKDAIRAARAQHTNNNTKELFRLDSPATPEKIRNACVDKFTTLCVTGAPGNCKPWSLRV

Compound	IC50 [1] [nM]	other results
Cc1nc(-c2ccc(OCCC(C)C)c([N+](=O)[O-])c2)[se]c1C(=O)O	65.6	–
CCOc1ccc(-c2nc(C)c(C(=O)O)[se]2)cc1[N+](=O)[O-]	82.5	–
CCCCOc1ccc(-c2nc(C)c(C(=O)O)[se]2)cc1[N+](=O)[O-]	49.2	–
Cc1nc(-c2ccc(OCC(C)C)c([N+](=O)[O-])c2)[se]c1C(=O)O	33.7	–
C=CCOc1ccc(-c2nc(C)c(C(=O)O)[se]2)cc1[N+](=O)[O-]	16.1	–
Cc1nc(-c2ccc(OCc3ccccc3)c([N+](=O)[O-])c2)[se]c1C(=O)O	40.3	–
CCCCOc1ccc(-c2nc(C)c(C(=O)O)[se]2)cc1C#N	13.2	–
C=CCOc1ccc(-c2nc(C)c(C(=O)O)[se]2)cc1C#N	5.5	Ki [2]: 2.3 nM; inhibition (INH) [3]: Active; Ki [4]: 0.9 nM; inhibition (INH) [5]: Active
COc1ccc(-c2nc(C)c(C(=O)O)[se]2)cc1C#N	30.6	–
CCCOc1ccc(-c2nc(C)c(C(=O)O)[se]2)cc1C#N	16.2	–
CCC(C)Oc1ccc(-c2nc(C)c(C(=O)O)[se]2)cc1C#N (stereo not drawn)	10.4	–
CCCCCOc1ccc(-c2nc(C)c(C(=O)O)[se]2)cc1C#N	45.6	–
C#CCOc1ccc(-c2nc(C)c(C(=O)O)[se]2)cc1C#N	53.8	–
C=CCOc1ccc(-c2nc(C)c(C(=O)OCC)[se]2)cc1C#N	–	inhibition at 10 µM [6]: < 50%
